Laboratory results reported in publication PMC7876048, “Mutant-selective degradation by BRAF-targeting PROTACs” (Nature Communications, 2021).
“Also recorded” adds a separate entry of the source.

Columns and labels:
[1] = molecular target: T1, NanoLuc-BRAF^WT : HaloTag-VHL (HEK293T cells) (Homo sapiens, UniProt P15056); experiment: NanoBRET ternary complex assay; assay type: cell-based; settings: cells expressing BRAF^WT, concentrations as high as 10 μM, 3 h
T1 construct: Full-length BRAF (WT and V600E) was cloned into the pNLF1-C [CMV/Hygro] vector; host or cells: HEK 293 T, transient co-transfection
Method: (§1) Full-length BRAF (WT and V600E) was cloned into the pNLF1-C [CMV/Hygro] vector. HEK 293 T cells were seeded into 6 well dishes (~75% confluent) and co-transfected with HaloTag-VHL (Promega; N273A) and C-terminal nanoLUC-tagged BRAF. Transfection was performed using a ratio of 1:2 DNA to Lipofectamine 2000. After 24 h, 1 × 10^4 cells were seeded into white 96 well plates (Costar Cat# 3610) in Opti-MEM™ I Reduced Serum Medium supplemented with 4% FBS and […] HaloTag NanoBRET 618 ligand or DMSO. The next day, the cells were pre-treated with 2 μM MG-132 for 1 h then treated with indicated amount of drug for 3 h. 6X NanoBRET Nano-Glo Substrate in Opti-MEM was then added to each well and the plate was read using a Perkin Elmer Envision. Dual filtered luminescence was measured with a 430 nm (donor, […]) and a 615 nm filter (acceptor, […]). Background corrected (cells without HaloTag 618 ligand) nanoBRET ratios were calculated to determine intracellular ternary complex formation.

[2] = molecular target: T2, NanoLuc-BRAF^V600E : HaloTag-VHL (HEK293T cells) (Homo sapiens, UniProt P15056+P40337, V600E); experiment: NanoBRET ternary complex assay; assay type: cell-based; settings: cells expressing BRAF^V600E, 3 h
T2 construct: Full-length BRAF (WT and V600E) was cloned into the pNLF1-C [CMV/Hygro] vector; host or cells: HEK 293 T, transient co-transfection
T2 sequence (P15056 whole entry V600E): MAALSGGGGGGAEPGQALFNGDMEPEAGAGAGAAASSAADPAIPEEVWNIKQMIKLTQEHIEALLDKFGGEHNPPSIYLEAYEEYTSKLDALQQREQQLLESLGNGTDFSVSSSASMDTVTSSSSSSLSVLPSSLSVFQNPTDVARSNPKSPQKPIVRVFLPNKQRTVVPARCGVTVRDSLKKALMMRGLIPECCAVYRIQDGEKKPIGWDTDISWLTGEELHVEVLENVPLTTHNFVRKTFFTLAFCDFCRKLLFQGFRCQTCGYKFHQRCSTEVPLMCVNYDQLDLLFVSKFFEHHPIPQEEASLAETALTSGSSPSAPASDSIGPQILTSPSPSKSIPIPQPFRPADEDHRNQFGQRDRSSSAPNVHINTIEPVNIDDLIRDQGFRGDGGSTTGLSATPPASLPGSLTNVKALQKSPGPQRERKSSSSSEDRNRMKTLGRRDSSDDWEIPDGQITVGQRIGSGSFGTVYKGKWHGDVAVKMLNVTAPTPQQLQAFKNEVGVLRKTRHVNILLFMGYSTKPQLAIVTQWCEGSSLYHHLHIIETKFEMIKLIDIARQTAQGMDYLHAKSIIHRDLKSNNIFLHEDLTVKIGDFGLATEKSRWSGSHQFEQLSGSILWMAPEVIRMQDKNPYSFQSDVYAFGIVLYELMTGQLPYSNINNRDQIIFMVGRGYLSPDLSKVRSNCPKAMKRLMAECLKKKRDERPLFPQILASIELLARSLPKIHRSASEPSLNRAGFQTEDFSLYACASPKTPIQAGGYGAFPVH
T2 sequence (P40337 whole entry): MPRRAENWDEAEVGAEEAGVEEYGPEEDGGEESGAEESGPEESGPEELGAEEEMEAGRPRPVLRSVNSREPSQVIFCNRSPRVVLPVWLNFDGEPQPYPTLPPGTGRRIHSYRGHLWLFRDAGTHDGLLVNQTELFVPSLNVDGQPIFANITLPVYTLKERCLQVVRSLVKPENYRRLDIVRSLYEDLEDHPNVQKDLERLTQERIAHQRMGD
T2 sequence (Q15369 whole entry partner): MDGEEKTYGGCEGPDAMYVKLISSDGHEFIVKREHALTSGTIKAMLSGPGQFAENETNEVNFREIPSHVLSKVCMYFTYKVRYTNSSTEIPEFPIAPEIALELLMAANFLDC
T2 sequence (Q15370 whole entry partner): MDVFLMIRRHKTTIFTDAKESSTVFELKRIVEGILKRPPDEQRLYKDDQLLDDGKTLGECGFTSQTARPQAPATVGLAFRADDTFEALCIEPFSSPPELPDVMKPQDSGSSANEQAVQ
Method: as §1

[3] = molecular target: T3, BRAF-p61^V600E (HCC-364 vr1 cells) (Homo sapiens, UniProt P15056+P40337, DEL169-380/V600E); experiment: BRAF degradation by immunoblot in HCC-364 vr1 cells; assay type: cell-based
T3 construct: endogenous in cells; host or cells: SK-MEL-239 C4; HCC-364 vr1
T3 sequence (P15056 with tags, fused parts or gaps DEL169-380/V600E): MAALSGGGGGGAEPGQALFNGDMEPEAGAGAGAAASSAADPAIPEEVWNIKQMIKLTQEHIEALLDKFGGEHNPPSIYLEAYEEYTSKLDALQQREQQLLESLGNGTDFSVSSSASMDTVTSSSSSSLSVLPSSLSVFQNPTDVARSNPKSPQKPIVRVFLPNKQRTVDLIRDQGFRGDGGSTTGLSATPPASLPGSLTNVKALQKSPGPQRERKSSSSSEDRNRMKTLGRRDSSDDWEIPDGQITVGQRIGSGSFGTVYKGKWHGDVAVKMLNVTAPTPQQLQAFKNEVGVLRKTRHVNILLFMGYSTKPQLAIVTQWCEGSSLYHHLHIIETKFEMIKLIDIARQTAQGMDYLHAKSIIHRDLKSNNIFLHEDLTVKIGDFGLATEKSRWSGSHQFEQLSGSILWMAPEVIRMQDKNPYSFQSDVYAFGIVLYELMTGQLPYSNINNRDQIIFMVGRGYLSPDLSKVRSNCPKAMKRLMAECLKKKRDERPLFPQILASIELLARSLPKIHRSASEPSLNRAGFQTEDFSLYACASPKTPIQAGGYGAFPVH
T3 sequence (P40337 whole entry, stated change not applied): as the sequence (P40337 whole entry) above
T3 sequence (Q15370 whole entry partner): as the sequence (Q15370 whole entry partner) above
T3 sequence (Q15369 whole entry partner): as the sequence (Q15369 whole entry partner) above
Method: (§2) Cells were plated in 6 well dishes (5 × 10^5–8 × 10^5 cells) and allowed to attach overnight. […] The plates were then placed on ice and washed 1x with chilled PBS and lysed in buffer containing 25 mM Tris-HCl [pH 7.4], 0.25% sodium deoxycholate, 150 mM NaCl, 1% Triton X-100, supplemented with protease inhibitors (1x Roche protease inhibitor cocktail) and phosphatase inhibitors (10 mM NaF, 1 mM Na3OV4, and 20 mM β-glycerophosphate). Lysates were then cleared at 21,000 g for 10 min at 4 °C. Protein concentrations of the supernatants were then quantified using a Pierce BCA Protein Assay. 12–40 µg of protein were separated using a gradient (4–20%) Criterion TGX precast gel and transferred unto a nitrocellulose membrane. The membranes were then blocked in 5% non-fat milk in TBST (Tris-buffered Saline with Tween 20) for 1 h before probing with the indicated primary antibody overnight. Membranes were imaged using Bio-Rad Image Lab software using ECL prime detection reagent (GE Healthcare, RPN2232 or ThermoScientific, 34095).
(§3) Western blot data was quantified by using the band feature in Image Lab, and values were averaged and analyzed in GraphPad Prism. DC50 and DMAX values were fitted using a three parameter [inhibitor] versus response and reported directly from the Prism output. Mean ± SD and unpaired t-tests were performed in GraphPad Prism.

[4] = tested on: SK-MEL-28 cells (Class 1, BRAF^V600E); experiment: Cell proliferation (MTS) assay; assay type: cell-based
[5] = molecular target: T4, BRAF^V600E (A375 xenograft) (Homo sapiens, UniProt P15056, V600E); experiment: A375 xenograft study, BRAF degradation in tumor; assay type: in vivo, mice; settings: 50 mg/kg or 150 mg/kg i.p. once a day for 3 days, 8 h after final dose
T4 construct: 5 million A375 cells were subcutaneously implanted in female nu/nu mice; endogenous in cells; host or cells: A375 cells as subcutaneous xenograft tumour in female nu/nu mice
T4 sequence (P15056 whole entry V600E): as the sequence (P15056 whole entry V600E) above
Method: 5 million A375 cells were subcutaneously implanted in female nu/nu mice. […] Mice were sacrificed 8 h after the final dose. Tissues were harvested, flash frozen, and lysed in 1X cell lysis buffer (Cell Signaling #9803) supplemented with protease and phosphatase inhibitors. Harvested tumors were disrupted using metal beads in a Tissuelyser. Homogenates were normalized for protein content and analyzed using SDS-PAGE and Western blotting. All studies were performed in compliance with institutional guidelines under an IACUC approved protocol.

[6] = tested on: SK-MEL-246 melanoma xenograft (Class 2, BRAF^G469A); experiment: SK-MEL-246 xenograft efficacy study; assay type: in vivo, mice
Method: 10 million SK-MEL-246 cells were subcutaneously implanted in female nu/nu mice. The tumor volumes and mice weights were measured twice a week after the implantation. […] All studies were performed in compliance with institutional guidelines under an Institutional Animal Care and Use Committee (IACUC) approved protocol. Investigators were not blinded when assessing the outcome of the in vivo experiments.

[7] = molecular target: T5, BRAF^WT (OVCAR-8 cells) (Homo sapiens, UniProt P15056); experiment: BRAF^WT degradation by immunoblot in OVCAR-8 cells; assay type: cell-based
T5 construct: endogenous in cells; host or cells: OVCAR-8
T5 sequence (P15056 whole entry): as the sequence (P15056 whole entry V600E) above, with E600V counted along it
Method: as §2, §3

In the case of `CCCS(=O)(=O)Nc1ccc(F)c(C(=O)c2c[nH]c3ncc(-c4ccc(N5CCN(CC(=O)NC(C(=O)N6CC(O)CC6C(=O)NCc6ccc(-c7scnc7C)cc6)C(C)(C)C)CC5)cc4)cc23)c1F` (stereo not shown) [SJF-0628], the BRET signal [1] is reported as “no observed increase”, the BRET signal [2] is reported as “an increase in BRET signal” and the DC50 [3] is reported as 147 nM. The Dmax ([3]; HCC364) was greater than 90%, the EC50 ([4]; Homo sapiens, 72 h, 3 days, read-out: EC50, cell growth) was 37 ± 1.2 nM and the “increase in potency of SJF-0628 (cell growth)” value ([4]; vs vemurafenib and SJF-0661) was 6 fold. For the same compound, the “DMAX, degradation of BRAF in the xenograft” value [5] was greater than 90%, the “effect on tumor growth” value ([6]; once daily 100 mg/kg i.p.) was “minor response” and the “effect on tumor growth” value ([6]; twice daily 50 mg/kg i.p., within 10 days, 50 mg/kg) was “tumor regression; also recorded: tumor shrinkage beyond the initial tumor size”. The “BRAF^WT degradation” value [7] was “minor BRAF^WT degradation”.
